Measurements as given in PubChem BioAssay AID248 (DTP/NCI, 2004).
“And” between values parts separate entries of the source, which are not always exact repeats. Equal values may be shown once. Inconclusive results and toxic doses are left out.

Test system: L1210 leukemia ip in BDF1 mice, survival T/C
Assay: NCI In Vivo Anticancer Drug Screen. Data for tumor model L1210 Leukemia (intraperitoneal) in B6D2F1 (BDF1) mice
Conditions: endpoint: mean survival time, higher = longer survival
How it was run: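 Mice bearing the transplanted tumor received compound or vehicle. Survival of the treated group was divided by that of the vehicle-treated control group to give the ratio.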

N[C@@H](Cc1ccc(N(CCCl)CCCl)cc1)C(=O)O
T/C (dose: 0.1 mg/kg/injection, schedule: Q01DX015 (ip), vehicle: carboxymethylcellulose (CMC)): 101 % of control and 102 % of control | T/C (dose: 0.13 mg/kg/injection, schedule: Q01DX009 (ip), vehicle: Klucel (hydroxypropylcellulose) (HPC)): 110 % of control | T/C (dose: 0.2 mg/kg/injection, schedule: Q01DX015 (ip), vehicle: carboxymethylcellulose (CMC)): 104 % of control and 111 % of control | T/C (dose: 0.25 mg/kg/injection, schedule: Q01DX009 (ip), vehicle: Klucel (hydroxypropylcellulose) (HPC)): 105 % of control and 115 % of control | T/C (dose: 0.39 mg/kg/injection, schedule: Q01DX001 (ip), vehicle: carboxymethylcellulose (CMC)): 102 % of control | T/C (dose: 0.4 mg/kg/injection, schedule: Q01DX015 (ip), vehicle: carboxymethylcellulose (CMC)): 109 % of control and 117 % of control | T/C (dose: 0.45 mg/kg/injection, schedule: Q04DX002 (ip), vehicle: Klucel (hydroxypropylcellulose) (HPC)): 96 % of control | T/C (dose: 0.5 mg/kg/injection, schedule: Q01DX005 (ip), vehicle: saline): 111 % of control | T/C (dose: 0.5 mg/kg/injection, schedule: Q01DX009 (ip), vehicle: Klucel (hydroxypropylcellulose) (HPC)): 115 % of control and 116 % of control | T/C (dose: 0.5 mg/kg/injection, schedule: Q01DX009 (ip), vehicle: saline): 120 % of control | T/C (dose: 0.5 mg/kg/injection, schedule: Q03DX Z (ip), vehicle: carboxymethylcellulose (CMC)): 113 % of control | T/C (dose: 0.5 mg/kg/injection, schedule: Q03HX008 (ip), vehicle: saline): 114 % of control | T/C (dose: 0.5 mg/kg/injection, schedule: Q03HX016 (ip), vehicle: saline): 124 % of control | T/C (dose: 0.78 mg/kg/injection, schedule: Q01DX001 (ip), vehicle: carboxymethylcellulose (CMC)): 108 % of control | T/C (dose: 0.8 mg/kg/injection, schedule: Q01DX015 (ip), vehicle: carboxymethylcellulose (CMC)): 121 % of control | T/C (dose: 0.9 mg/kg/injection, schedule: Q04DX002 (ip), vehicle: Klucel (hydroxypropylcellulose) (HPC)): 104 % of control and 115 % of control | T/C (dose: 1.0 mg/kg/injection, schedule: Q01DX005 (ip), vehicle: saline): 123 % of control | T/C (dose: 1.0 mg/kg/injection, schedule: Q01DX006 (iv), vehicle: carboxymethylcellulose (CMC)): 107 % of control | T/C (dose: 1.0 mg/kg/injection, schedule: Q01DX009 (oral), vehicle: saline): 111 % of control | T/C (dose: 1.0 mg/kg/injection, schedule: Q01DX Z (im), vehicle: carboxymethylcellulose (CMC)): 96 % of control | T/C (dose: 1.0 mg/kg/injection, schedule: Q01DX Z (ip), vehicle: carboxymethylcellulose (CMC)): 94 % of control | T/C (dose: 1.0 mg/kg/injection, schedule: Q01DX Z (sc), vehicle: carboxymethylcellulose (CMC)): 94 % of control | T/C (dose: 1.0 mg/kg/injection, schedule: Q03HX008 (ip), vehicle: saline): 119 % of control | T/C (dose: 1.0 mg/kg/injection, schedule: Q#A X Z (ip), vehicle: carboxymethylcellulose (CMC)): 94 % of control | T/C (dose: 1.13 mg/kg/injection, schedule: Q01DX001 (ip), vehicle: carboxymethylcellulose (CMC)): 111 % of control and 121 % of control | T/C (dose: 1.56 mg/kg/injection, schedule: Q01DX001 (ip), vehicle: saline): 104 % of control and 107 % of control | T/C (dose: 1.6 mg/kg/injection, schedule: Q01DX015 (ip), vehicle: carboxymethylcellulose (CMC)): 154 % of control | T/C (dose: 1.8 mg/kg/injection, schedule: Q04DX002 (ip), vehicle: Klucel (hydroxypropylcellulose) (HPC)): 117 % of control and 118 % of control | T/C (dose: 2.0 mg/kg/injection, schedule: Q01DX006 (iv), vehicle: carboxymethylcellulose (CMC)): 110 % of control | T/C (dose: 2.0 mg/kg/injection, schedule: Q01DX Z (im), vehicle: carboxymethylcellulose (CMC)): 98 % of control | T/C (dose: 2.0 mg/kg/injection, schedule: Q01DX Z (ip), vehicle: carboxymethylcellulose (CMC)): 93 % of control | T/C (dose: 2.0 mg/kg/injection, schedule: Q01DX Z (oral), vehicle: carboxymethylcellulose (CMC)): 115 % of control | T/C (dose: 2.0 mg/kg/injection, schedule: Q01DX Z (sc), vehicle: carboxymethylcellulose (CMC)): 104 % of control | T/C (dose: 2.0 mg/kg/injection, schedule: Q03DX Z (ip), vehicle: carboxymethylcellulose (CMC)): 153 % of control | T/C (dose: 2.16 mg/kg/injection, schedule: Q04DX003 (ip), vehicle: saline): 151 % of control | T/C (dose: 2.37 mg/kg/injection, schedule: Q01DX009 (ip), vehicle: other): 150 % of control | T/C (dose: 3.0 mg/kg/injection, schedule: Q03DX Z (ip), vehicle: carboxymethylcellulose (CMC)): 115 % of control | T/C (dose: 3.12 mg/kg/injection, schedule: Q01DX001 (ip), vehicle: saline): 109 % of control and 112 % of control | T/C (dose: 3.6 mg/kg/injection, schedule: Q03HX024 (ip), vehicle: other): 104 % of control | T/C (dose: 4.0 mg/kg/injection, schedule: Q01DX001 (ip), vehicle: saline): 124 % of control | T/C (dose: 4.0 mg/kg/injection, schedule: Q01DX001 (sc), vehicle: saline): 121 % of control | T/C (dose: 4.0 mg/kg/injection, schedule: Q01DX006 (iv), vehicle: carboxymethylcellulose (CMC)): 102 % of control | T/C (dose: 4.0 mg/kg/injection, schedule: Q01DX009 (oral), vehicle: saline): 151 % of control | T/C (dose: 4.0 mg/kg/injection, schedule: Q01DX Z (im), vehicle: carboxymethylcellulose (CMC)): 104 % of control | T/C (dose: 4.0 mg/kg/injection, schedule: Q01DX Z (ip), vehicle: carboxymethylcellulose (CMC)): 98 % of control | T/C (dose: 4.0 mg/kg/injection, schedule: Q01DX Z (oral), vehicle: carboxymethylcellulose (CMC)): 104 % of control | T/C (dose: 4.0 mg/kg/injection, schedule: Q01DX Z (sc), vehicle: carboxymethylcellulose (CMC)): 102 % of control | T/C (dose: 4.0 mg/kg/injection, schedule: Q03HX024 (ip), vehicle: saline): 122 % of control | T/C (dose: 4.0 mg/kg/injection, schedule: Q#A X Z (ip), vehicle: carboxymethylcellulose (CMC)): 110 % of control | T/C (dose: 6.0 mg/kg/injection, schedule: Q03DX Z (ip), vehicle: carboxymethylcellulose (CMC)): 106 % of control | T/C (dose: 6.25 mg/kg/injection, schedule: Q01DX001 (ip), vehicle: saline): 120 % of control | T/C (dose: 7.0 mg/kg/injection, schedule: Q01DX001 (ip), vehicle: carboxymethylcellulose (CMC)): 110 % of control and 115 % of control | T/C (dose: 7.0 mg/kg/injection, schedule: Q07DX Z (ip), vehicle: carboxymethylcellulose (CMC)): 107 % of control | T/C (dose: 7.5 mg/kg/injection, schedule: Q01DX009 (ip), vehicle: saline): 100 % of control and 107 % of control | T/C (dose: 8.0 mg/kg/injection, schedule: Q01DX001 (oral), vehicle: saline): 123 % of control | T/C (dose: 8.0 mg/kg/injection, schedule: Q01DX001 (sc), vehicle: saline): 117 % of control | T/C (dose: 8.0 mg/kg/injection, schedule: Q01DX005 (ip), vehicle: saline): 154 % of control | T/C (dose: 8.0 mg/kg/injection, schedule: Q01DX006 (iv), vehicle: carboxymethylcellulose (CMC)): 104 % of control | T/C (dose: 8.0 mg/kg/injection, schedule: Q01DX009 (ip), vehicle: Klucel (hydroxypropylcellulose) (HPC)): 121 % of control | T/C (dose: 8.0 mg/kg/injection, schedule: Q01DX009 (ip), vehicle: saline): 114 % of control | T/C (dose: 8.0 mg/kg/injection, schedule: Q01DX009 (oral), vehicle: saline): 112 % of control | T/C (dose: 8.0 mg/kg/injection, schedule: Q01DX009 (sc), vehicle: saline): 95 % of control | T/C (dose: 8.0 mg/kg/injection, schedule: Q01DX Z (im), vehicle: carboxymethylcellulose (CMC)): 98 % of control | T/C (dose: 8.0 mg/kg/injection, schedule: Q01DX Z (oral), vehicle: carboxymethylcellulose (CMC)): 104 % of control | T/C (dose: 8.0 mg/kg/injection, schedule: Q01DX Z (sc), vehicle: carboxymethylcellulose (CMC)): 96 % of control | T/C (dose: 12.0 mg/kg/injection, schedule: Q03DX Z (ip), vehicle: carboxymethylcellulose (CMC)): 105 % of control | T/C (dose: 12.5 mg/kg/injection, schedule: Q01DX Z (ip), vehicle: carboxymethylcellulose (CMC)): 102 % of control | T/C (dose: 14.0 mg/kg/injection, schedule: Q01DX001 (ip), vehicle: carboxymethylcellulose (CMC)): 115 % of control and 117 % of control | T/C (dose: 14.0 mg/kg/injection, schedule: Q07DX Z (ip), vehicle: carboxymethylcellulose (CMC)): 98 % of control | T/C (dose: 16.0 mg/kg/injection, schedule: Q01DX Z (ip), vehicle: carboxymethylcellulose (CMC)): 106 % of control | T/C (dose: 16.0 mg/kg/injection, schedule: Q01DX Z (oral), vehicle: carboxymethylcellulose (CMC)): 102 % of control | T/C (dose: 16.7 mg/kg/injection, schedule: Q01DX001 (ip), vehicle: saline): 123 % of control | T/C (dose: 24.0 mg/kg/injection, schedule: Q03DX Z (ip), vehicle: carboxymethylcellulose (CMC)): 105 % of control | T/C (dose: 25.0 mg/kg/injection, schedule: Q01DX001 (ip), vehicle: saline): 154 % of control | T/C (dose: 28.0 mg/kg/injection, schedule: Q01DX001 (ip), vehicle: carboxymethylcellulose (CMC)): 107 % of control | T/C (dose: 28.0 mg/kg/injection, schedule: Q07DX Z (ip), vehicle: carboxymethylcellulose (CMC)): 94 % of control | T/C (dose: 29.0 mg/kg/injection, schedule: Q04DX003 (ip), vehicle: other): 95 % of control | T/C (dose: 30.0 mg/kg/injection, schedule: Q01DX001 (ip), vehicle: carboxymethylcellulose (CMC)): 153 % of control | T/C (dose: 32.0 mg/kg/injection, schedule: Q01DX001 (ip), vehicle: saline): 121 % of control | T/C (dose: 32.0 mg/kg/injection, schedule: Q01DX001 (oral), vehicle: saline): 93 % of control | T/C (dose: 32.0 mg/kg/injection, schedule: Q01DX Z (oral), vehicle: carboxymethylcellulose (CMC)): 104 % of control | T/C (dose: 56.0 mg/kg/injection, schedule: Q01DX001 (ip), vehicle: carboxymethylcellulose (CMC)): 107 % of control and 117 % of control | T/C (dose: 56.0 mg/kg/injection, schedule: Q07DX Z (ip), vehicle: carboxymethylcellulose (CMC)): 96 % of control
